Source: patent publication US7293941B2, “Methods for cementing using compositions containing salts” (Halliburton Energy Services, Inc., priority 2005, dated 2007)

Legend:
[1] = system: skeletonema costatum; experiment: Toxicity to algae, ISO 10253 (OSPAR HOCNF); type: in vivo; conditions: amount required to kill or incapacitate half the test population per amount of water
Description: (§1) According to still other embodiments described herein, a disulfonate salt of 2,4-pentanedione is provided. According to one such embodiment, the salt comprises 2,4-pentanedione-1,5-sodium disulfonate. According to another such embodiment, a disulfonate salt of 2,4-pentanedione has an environmentally acceptable toxicity. As used herein, the term “environmentally acceptable toxicity” means that, when tested according to procedures that are the same as or equivalent to those set forth by the OSPAR Guidelines for Completing the Harmonised Offshore Chemical Notification Format (HOCNF) (References number: 2003-1) that were in effect on Dec. 31, 2004, the salt is determined to have a toxicity of greater than about 10,000 mg/L for an algae (skeletonema costatum), a crustacean (acartia tonsa), a fish (scopthalmus) and a sediment reworker (corophium volutator). […]
(§2) In this Example 3, the toxicity results for the skeletonema costatum were determined according to ISO (International Organization for Standardization) 10253, the protocol for which is known to those of ordinary skill in the art, and is also the protocol required under the above-referenced HOCNF Guidelines. The toxicity results for the acartia tonsa were determined according to ISO 14669, the protocol for which is known to those of ordinary skill in the art. […]

[2] = system: corophium volutator; experiment: Toxicity to sediment reworker, OSPAR Protocols Part B; type: in vivo; conditions: amount required to kill or incapacitate half the test population per amount of water
Description: as §1, §2

[3] = Environmentally / nationally acceptable toxicity assessment; conditions: concluded from result > about 10,000 mg/L for the species tested
Description: According to still other embodiments described herein, a disulfonate salt of 2,4-pentanedione is provided. According to one such embodiment, the salt comprises 2,4-pentanedione-1,5-sodium disulfonate. According to another such embodiment, a disulfonate salt of 2,4-pentanedione has an environmentally acceptable toxicity. As used herein, the term “environmentally acceptable toxicity” means that, when tested according to procedures that are the same as or equivalent to those set forth by the OSPAR Guidelines for Completing the Harmonised Offshore Chemical Notification Format (HOCNF) (References number: 2003-1) that were in effect on Dec. 31, 2004, the salt is determined to have a toxicity of greater than about 10,000 mg/L for an algae (skeletonema costatum), a crustacean (acartia tonsa), a fish (scopthalmus) and a sediment reworker (corophium volutator).
According to yet another embodiment, a disulfonate salt of 2,4-pentanedione has a “nationally acceptable toxicity.” As used herein, the term “nationally acceptable toxicity” means that when tested according to procedures that are the same as or equivalent to those in effect in a country of interest on Dec. 31, 2004, the salt is determined to have a toxicity acceptable for use in the areas subject to such country's procedures. […]

[4] = Solubility of salt versus free acid on methanol rinse; type: physicochemical; conditions: compared to 2,4-pentanedione-1,5-disulfonic free acid
Description: The neutralized product was then rinsed several times with methanol to remove by-product acids, or any salts formed therefrom, while leaving the 2,4-pentanedione-1,5-sodium disulfonate primarily undissolved. […] The rinsed product was dried in a vacuum oven and filtered through a 300 mesh screen to afford a flowing pale orange/red powder. The resulting powder was 2,4-pentanedione-1,5-sodium disulfonate.

[5] = system: scopthalmus; experiment: Toxicity to fish, OSPAR Protocols Part B; type: in vivo; conditions: amount required to kill or incapacitate half the test population per amount of water
Description: as §1, §2

[6] = system: acartia tonsa; experiment: Toxicity to crustacean, ISO 14669; type: in vivo; conditions: amount required to kill or incapacitate half the test population per amount of water
Description: as §1, §2

Compound: O=C(CC(=O)CS(=O)(=O)[O-])CS(=O)(=O)[O-].[Na+].[Na+] [2,4-pentanedione-1,5-sodium disulfonate]
- toxicity [1]: greater than 10,000 mg/L
- toxicity [2]: greater than 10,000 mg/L
- toxicity acceptability [3]: low toxicity
- solubility compared to the free acid [4]: significantly less soluble
- toxicity [5]: greater than 10,000 mg/L
- toxicity [6]: greater than 10,000 mg/L
